The text below walks through data of PMC12169455, “Discovery of Indole-Based PDE5 Inhibitors: Synthesis and Pharmacological Evaluation” (ACS Medicinal Chemistry Letters, 2025).

Like-named read-outs stand apart in the source and are kept apart here.

Data set [1] addresses Recombinant human PDE5 (Homo sapiens, UniProt O76074). Description: PDE5 enzymatic assay coupled with LC/MS analysis for cGMP determination. It counts as biochemical.
The nature of data set [2]: PAMPA using porcine brain lipids (BBB permeability). The conditions noted are these: pig.
The subject of data set [3] is MCF-7 mammary epithelial adenocarcinoma cells. Description: MTT cytotoxicity assay. The class given is cell-based. The conditions noted are these: MCF-7, MTT. Here is the method: The cytotoxicity effect of compound 14a was investigated to validate its suitability as a lead compound for further drug development. The cancer cell line MCF-7 was used in an MTT assay assessing cell metabolic activity (see Supporting Information for materials and methods).
5 Cytotoxicity assay of compound 14a. The compound (0.1–100 μM) was dissolved in 20% DMSO in saline; ns = nonsignificant. […]
µM concentrations. […] The cells
MultiScreen® filter plate (cat. no. MAIPNTR10, Millipore). Sample solutions (300 µL, 50 µM, […]
at room temperature for 18 hours. Samples from the acceptor wells were collected and analyzed by HPLC (Nexera-i LC-2040C Plus, Shimadzu). Equilibrium solutions of compounds 5e, 14a, […]
HPLC. The assay was performed in triplicate. […]
used for the HPLC analysis. […]
apparent permeability (Papp) using the following equation:
P = C × ― ln 1 ― AUCa cm/s […]
this protocol, the donor volume (Vd) is 0.3 cm3, acceptor volume (Va) is 0.15 cm3, membrane
A general note: Tetrazolium dyes change colour on reduction, which living cells bring about.

Setting [4] is: compound concentration range 0.1 nM – 100 μM, substrate concentration 150 nM, read-out: PDE5 IC50 ± SEM.
The mark [5] stands for this setting: compound tested at 10 μM, average of at least three independent experiments, read-out: % PDE5 Inhibition ± SEM.
Setting [6] is: Papp (RSD), tested at 50 μM, 18 hours, n.d. = not detected.
Where [7] appears, read: Papp relative to the BBB-permeable cutoff, higher than cutoff = BBB-permeable.
Where [8] appears, read: PDE5 IC50 ± SEM, compound concentration range 0.1 nM – 100 μM, substrate concentration 150 nM.
The mark [9] stands for this setting: read-out: % PDE5 Inhibition ± SEM.

As to `COc1ccc(NCc2cn(C)c3ccc(C#N)cc23)cc1Cl` [Compound 5a], the IC50 – broadly, the concentration at which inhibition is half-maximal – in data set [1] (setting [4]) is 2650 ± 480 nM. Also, the inhibition – broadly, the relative decrease from the control value, in per cent – at 10 µM in data set [1] (setting [5]) was 77 ± 4.87%.

In the case of `CCCn1cc(CNc2ccc(OC)c(Cl)c2)c2cc(C#N)ccc21` [Compound 5b], in data set [1] (setting [4]), the IC50 stood at 2460 ± 130 nM. Besides, the inhibition at 10 µM in data set [1] (setting [5]) was found to be 94.8 ± 2.58%.

On to `COc1ccc(NCc2cn(CC3CC3)c3ccc(C#N)cc23)cc1Cl` [Compound 5c], for which the IC50 in data set [1] (setting [4]) stood at 1370 ± 300 nM. Moreover, the inhibition at 10 µM in data set [1] (setting [5]) was determined as 86.3 ± 1.97%.

Regarding `COc1ccc(NCc2cn(CC(C)C)c3ccc(C#N)cc23)cc1Cl` [Compound 5d], the IC50 in data set [1] (setting [4]) was found to be 1720 ± 720 nM. Besides, the inhibition at 10 µM in data set [1] (setting [5]) worked out at 99.2 ± 2.72%.

On to `COc1ccc(NCc2cn(CCN(C)C)c3ccc(C#N)cc23)cc1Cl` [Compound 5e], for which the inhibition at 10 µM in data set [1] (setting [5]) worked out at 26.2 ± 3.85%. The apparent permeability coefficient (Papp) (in general, a coefficient for how fast a substance crosses the barrier) at 18 h, 50 µM in data set [2] (setting [6]) was 5.62 ×10⁻⁶ cm/s; in data set [2] (setting [7]), over 2 ×10⁻⁶ cm/s.

For the molecule `COCCn1cc(CNc2ccc(OC)c(Cl)c2)c2cc(C#N)ccc21` [Compound 5f], the IC50 in data set [1] (setting [4]) turned out to be 10400 ± 150 nM. Moreover, the inhibition at 10 µM in data set [1] (setting [5]) was found to be 74.5 ± 1.95%.

Regarding `COc1ccc(NCc2cn(Cc3ccncc3)c3ccc(C#N)cc23)cc1Cl` [Compound 5g], the inhibition at 10 µM in data set [1] (setting [5]) came to 54.5 ± 4.21%.

With `COc1ccc(CNCc2cn(C)c3ccc(C#N)cc23)cc1Cl` [Compound 5h], the IC50 in data set [1] (setting [4]) is 1250 ± 150 nM. Further, the inhibition at 10 µM in data set [1] (setting [5]) turned out to be 72.2 ± 1.25%.

As for `Cn1cc(CNCc2ccc3c(c2)OCO3)c2cc(C#N)ccc21` [Compound 5i], the inhibition at 10 µM in data set [1] (setting [5]) is 23.6 ± 2.24%.

Regarding `Cn1cc(CNCCN2CCOCC2)c2cc(C#N)ccc21` [Compound 5j], the inhibition at 10 µM in data set [1] (setting [5]) was 10.5 ± 1.69%.

As for `Cn1cc(CNCc2ccc(Cl)c(C(F)(F)F)c2)c2cc(C#N)ccc21` [Compound 5k], in data set [1] (setting [4]), the IC50 was found to be 1770 ± 390 nM. Besides, the inhibition at 10 µM in data set [1] (setting [5]) worked out at 73.4 ± 4.13%.

Consider `COc1ccc(Nc2cn(S(=O)(=O)c3ccc(C)cc3)c3ccc(C#N)cc23)cc1Cl` [Compound 10], for which the inhibition at 10 µM in data set [1] (setting [5]) came out at 73.4 ± 7.5%.

With `COc1ccc(CNC(=O)c2cn(CCN(C)C)c3ccc(C#N)cc23)cc1Cl` [Compound 14a], the IC50 worked out at 16.1 nM in data set [1] (PDE5 IC50, value quoted in abstract and conclusion); 16.1 ± 7 nM in data set [1] (setting [8]). Moreover, in data set [1] (compared with amine analogues), the “increase in biological activity (PDE5) on replacing amine with amide” value was 2 log unit. In data set [1] (setting [9]), the inhibition at 0.5 µM came out at 101 ± 4.99%. In data set [3], the “biologically safe up to (cytotoxicity assay)” value is given as “up to 100 μM”. For the same molecule, the “concentration showing a cytotoxic effect” value in data set [3] (after 72 h incubation, safe at all other concentrations tested (0.1–100 μM)) stood at 100 µM. Besides, the Papp at 18 h, 50 µM is 2.83 ×10⁻⁶ cm/s in data set [2] (setting [6]) and over 2 ×10⁻⁶ cm/s in data set [2] (setting [7]).

In the case of `COc1ccc(NC(=O)c2cn(CCN(C)C)c3ccc(C#N)cc23)cc1Cl` [Compound 14b], in data set [1] (setting [8]), the IC50 was 10600 ± 1990 nM. Besides, in data set [1] (setting [9]), the inhibition at 10 µM turned out to be 47.5 ± 2.33%.

Consider `COc1ccc(CNC(=O)c2cn(CCN(C)C)c3ccccc23)cc1Cl` [Compound 14c], for which the IC50 in data set [1] (setting [8]) was 3650 ± 970 nM. In data set [1] (at 10 μM), the “PDE5 inhibition effect compared to compound 5e” value is recorded as “about double”. Also, the inhibition at 10 µM in data set [1] (setting [9]) amounted to 66.1 ± 2.34%.

Turning to `COc1ccc(CN(C)C(=O)c2cn(CCN(C)C)c3ccc(C#N)cc23)cc1Cl.Cl` [Compound 14d], in data set [1] (setting [8]), the IC50 came out at 4900 ± 680 nM. The “reduction of the enzymatic activity (PDE5) compared to 14a” value in data set [1] (amide hydrogen replaced by methyl) worked out at 2 log unit. The inhibition at 10 µM in data set [1] (setting [9]) came to 52 ± 6.68%.

In the case of `CCCc1nn(C)c2c(=O)[nH]c(-c3cc(S(=O)(=O)N4CCN(C)CC4)ccc3OCC)nc12` [Sildenafil, sildenafil, reference compound], the inhibition at 0.01 µM in data set [1] (setting [9]) amounted to 58.2 ± 2.33%.
